According to PubChem BioAssay AID1918995 (Molecular Pharmacology Branch, DTP, NCI, 2023):
Several values for one entry are separate records, joined by “and”; a condition that tells them apart may be missing. Equal entries are not always repeated. Each block holds one molecule with its values, some of them ahead of it.

System: 324938-238-R-J1-PDC complex spheroid growth, % test/control
Assay: Anticancer human tumor 324938-238-R-J1-PDC patient-derived bladder carcinoma cell line growth inhibition [AhR]
Details: for viability, T/C: stronger effect = lower value
Text: Multicellular complex tumor spheroid response to aryl hydrocarbon receptor antagonists in combination with a variety of drugs and investigational agents in selected tumor cell lines
The current study was undertaken to assess response to aryl hydrocarbon receptor antagonists in combination with standard-of-care drugs and investigational agents in solid tumor complex spheroid models. Complex spheroids include a stromal component modeled by human endothelial cells (HUVEC) and fibroblasts modeled by human mesenchymal stem cells (MSCs). The concentration ranges selected for each drug and investigational agent were based upon clinically achievable concentrations if the clinical Cmax of the agent was known.
Compounds. The drugs and investigational agents: BAY 2416964 (NSC825713), GNF351 (NSC835774), CH-223191 (NSC835775), CPI-455 (NSC825282), aza-TdCyd (NSC777586), decitabine (NSC127716), belinostat (NSC758774), entinostat (NSC756642), pevonedistat (NSC761192), tazemetostat (NSC777109), talazoparib (NSC765396), olaparib (NSC753686), selinexor (NSC780203), nedisertib (M3814, NSC802822), bortezomib (NSC756655), venetoclax (NSC766270), doxorubicin (NSC123127), elimusertib (BAY189344, NSC800525), ceralasertib (AZD6738, NSC777638), TAK-243 (NSC785004), alisertib (NSC759677), etoposide (NSC141540), topotecan (NSC609699), eribulin (NSC707389), gemcitabine (NSC613327), carboplatin (NSC241240), cisplatin (NSC119875), and SN-38 (NSC673596) were obtained from the National Cancer Institute (NCI) Developmental Therapeutics Program Chemical Repository (32). The FDA-approved anticancer drug set is available from the Developmental Therapeutics Program at https://dtp.cancer.gov/organization/dscb/obtaining/available plates.htm. […] The stock solutions were prepared in dimethyl sulfoxide (DMSO, Sigma-Aldrich, St. Louis, MO, cat. D2650), except for the platinum compounds which were prepared in saline (Quality Biological, Gaithersburg, MD, cat. 114-055-101), at 800-fold the tested concentration and stored at -70 degrees C prior to their use. All drugs and investigational agents were tested over a range starting from a high concentration at or near the clinical Cmax and decreasing in half-log increments. If the clinical Cmax for an agent had not been determined, the highest concentration tested was 10 microM (Table 1).
Cell Culture. All cells were maintained in an incubator at 37 degrees C and 5% CO2 with 95% humidity. The PDC lines were cultured according to standard operating procedures established by the NCI PDMR (https://pdmr.cancer.gov). Briefly, all PDCs were thawed and cultured in Matrigel-coated flasks prepared with a working solution of 1X Ham's F-12 nutrient mix, without supplementation (Invitrogen, Waltham, MA, cat. 11765054), 100 U/mL penicillin-streptomycin (Invitrogen, cat. 15140122), and 2.5% Matrigel (Corning Inc., Corning, NY, cat. 354248) for the first three passages. All PDCs were cultured in complete DMEM/F-12 media containing advanced DMEM/F-12 (Invitrogen, cat. 12634028), 4.9% defined fetal bovine serum, heat inactivated (HyClone Laboratories Inc., Logan, UT, cat. SH30070.03HI), 389 ng/mL hydrocortisone (Sigma-Aldrich, cat. H4001), 9.7 ng/mL human EGF recombinant protein (Invitrogen, cat. PHG0313), 23.4 microg/mL adenine (Sigma-Aldrich, cat. A2786), 97.3 U/mL penicillin-streptomycin (Invitrogen, cat. 15140122), 1.9 mM L-glutamine (Invitrogen, cat. 25030081), and 9.7 microM Y-27632 dihydrochloride (Tocris Bioscience, Bristol, United Kingdom, cat. 1254). The PDCs were cultured in complete DMEM/F12 media without 10 microM Y-27632 dihydrochloride for at least two passages prior to the screen. The established cell lines NCI-H1341 and […] were cultured in DMEM/F-12, HEPES (Invitrogen, cat. 11330032), 5% defined fetal bovine serum (HyClone Laboratories Inc., cat. SH30070.03), ITS premix universal culture supplement [insulin (5 microg/mL), transferrin (5 microg/mL), and selenious acid (5 ng/mL)] […]

[1] = curve of first compound, second compound 0.1 µM
[2] = curve of first compound, second compound 0.316 µM
[3] = curve of first compound, second compound 1 µM
[4] = curve of first compound, second compound 3.16 µM
[5] = curve of first compound, second compound 10 µM
[6] = second compound 0.1 µM, first compound 0.0316 µM
[7] = second compound 0.1 µM, first compound 0.1 µM
[8] = second compound 0.1 µM, first compound 0.316 µM
[9] = second compound 0.1 µM, first compound 1 µM
[10] = second compound 0.1 µM, first compound 3.16 µM
[11] = second compound 0.1 µM, first compound 10 µM
[12] = second compound 0.316 µM, first compound 0.0316 µM
[13] = second compound 0.316 µM, first compound 0.1 µM
[14] = second compound 0.316 µM, first compound 0.316 µM
[15] = second compound 0.316 µM, first compound 1 µM
[16] = second compound 0.316 µM, first compound 3.16 µM
[17] = second compound 0.316 µM, first compound 10 µM
[18] = second compound 1 µM, first compound 0.0316 µM
[19] = second compound 1 µM, first compound 0.1 µM
[20] = second compound 1 µM, first compound 0.316 µM
[21] = second compound 1 µM, first compound 1 µM
[22] = second compound 1 µM, first compound 3.16 µM
[23] = second compound 1 µM, first compound 10 µM
[24] = second compound 3.16 µM, first compound 0.0316 µM
[25] = second compound 3.16 µM, first compound 0.1 µM
[26] = second compound 3.16 µM, first compound 0.316 µM
[27] = second compound 3.16 µM, first compound 1 µM
[28] = second compound 3.16 µM, first compound 3.16 µM
[29] = second compound 3.16 µM, first compound 10 µM
[30] = second compound 10 µM, first compound 0.0316 µM
[31] = second compound 10 µM, first compound 0.1 µM
[32] = second compound 10 µM, first compound 0.316 µM
[33] = second compound 10 µM, first compound 1 µM
[34] = second compound 10 µM, first compound 3.16 µM
[35] = second compound 10 µM, first compound 10 µM
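Note: spheroids exposed to agents for seven days before viability read.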

SMILES: Nc1ccn(C2OC(CO)C(O)C2(F)F)c(=O)n1 (stereo not drawn) + Cc1cncc(-c2nc(NCCc3c[nH]c4ccccc34)c3ncn(C(C)C)c3n2)c1
IC50 [1]: > 10000 nM
IC50 [2]: > 10000 nM
IC50 [3]: > 10000 nM
IC50 [4]: > 10000 nM
IC50 [5]: < 31.6 nM
viability, T/C [6]: 105%
viability, T/C [7]: 81.5%
viability, T/C [8]: 88.5%
viability, T/C [9]: 51.6%
viability, T/C [10]: 83.9%
viability, T/C [11]: 84.1%
viability, T/C [12]: 79.4%
viability, T/C [13]: 61.6%
viability, T/C [14]: 79.2%
viability, T/C [15]: 87.2%
viability, T/C [16]: 93.3%
viability, T/C [17]: 111%
viability, T/C [18]: 95.1%
viability, T/C [19]: 65.9%
viability, T/C [20]: 79.8%
viability, T/C [21]: 84.1%
viability, T/C [22]: 69.6%
viability, T/C [23]: 84.5%
viability, T/C [24]: 95.2%
viability, T/C [25]: 74.3%
viability, T/C [26]: 119%
viability, T/C [27]: 84.3%
viability, T/C [28]: 120%
viability, T/C [29]: 72.5%
viability, T/C [30]: 45.5%
viability, T/C [31]: 53.7%
viability, T/C [32]: 49.7%
viability, T/C [33]: 49.3%
viability, T/C [34]: 62.2%
viability, T/C [35]: 62.7%

SMILES: NS(=O)(=O)OCC1CC(n2ccc3c(NC4CCc5ccccc54)ncnc32)CC1O (stereo not drawn) + CC(CO)NC(=O)c1cc(-c2ccc(Cl)cc2)nn(-c2cnn(C)c2)c1=O
IC50 [1]: 534 nM
IC50 [2]: 558 nM
IC50 [3]: 586 nM
IC50 [4]: 450 nM
IC50 [5]: 379 nM
viability, T/C [6]: 90.3%
viability, T/C [7]: 96.4%
viability, T/C [8]: 66.8%
viability, T/C [9]: 31.1%
viability, T/C [10]: 25.3%
viability, T/C [11]: 28.9%
viability, T/C [12]: 88.5%
viability, T/C [13]: 101%
viability, T/C [14]: 64%
viability, T/C [15]: 37.3%
viability, T/C [16]: 21.9%
viability, T/C [17]: 27.1%
viability, T/C [18]: 77.1%
viability, T/C [19]: 82.2%
viability, T/C [20]: 64.1%
viability, T/C [21]: 38.2%
viability, T/C [22]: 22.9%
viability, T/C [23]: 29.1%
viability, T/C [24]: 69.9%
viability, T/C [25]: 67.8%
viability, T/C [26]: 55.4%
viability, T/C [27]: 37.3%
viability, T/C [28]: 27.5%
viability, T/C [29]: 26.9%
viability, T/C [30]: 61.5%
viability, T/C [31]: 58.6%
viability, T/C [32]: 51.5%
viability, T/C [33]: 40.8%
viability, T/C [34]: 29.1%
viability, T/C [35]: 30.5%

SMILES: O=C(C=Cc1cccc(S(=O)(=O)Nc2ccccc2)c1)NO
viability, T/C (compound 0.0316 µM): 100% and 110% and 114%
viability, T/C (compound 0.1 µM): 92% and 98.7% and 110%
viability, T/C (compound 0.316 µM): 109% and 89.2% and 81.5%
viability, T/C (compound 1 µM): 85.5% and 66.9% and 72.5%
viability, T/C (compound 3.16 µM): 46% and 49.9% and 51.9%
IC50 (curve of compound): 2790 nM and 2980 nM and 2550 nM

SMILES: Nc1ncn(C2CC(O)C(CO)S2)c(=O)n1 (stereo not drawn)
viability, T/C (compound 0.000949 µM): 106% and 103% and 93.4%
viability, T/C (compound 0.003 µM): 86.6% and 105% and 95.5%
viability, T/C (compound 0.00949 µM): 86.8% and 106% and 94.1%
viability, T/C (compound 0.03 µM): 116% and 92.5% and 88.8%
viability, T/C (compound 0.0949 µM): 96.4% and 71.2% and 66.3%
viability, T/C (compound 0.3 µM): 138% and 60.1% and 43.4%
IC50 (curve of compound): > 300 nM and 215 nM

More lines, main results first:

IC50 [1]: 9570 nM
IC50 [2]: > 10000 nM
IC50 [3]: 8760 nM
IC50 [4]: 6000 nM
IC50 [5]: 5680 nM
SMILES: CC1(C)CCC(CN2CCN(c3ccc(C(=O)NS(=O)(=O)c4ccc(NCC5CCOCC5)c([N+](=O)[O-])c4)c(Oc4cnc5[nH]ccc5c4)c3)CC2)=C(c2ccc(Cl)cc2)C1 + Cc1ccccc1N=Nc1ccc(NC(=O)c2ccnn2C)c(C)c1
viability, T/C [6]: 87.7%
viability, T/C [7]: 92.8%
viability, T/C [8]: 93.6%
viability, T/C [9]: 87.8%
viability, T/C [10]: 80.7%
viability, T/C [11]: 48.8%
viability, T/C [12]: 89.4%
viability, T/C [13]: 90.5%
viability, T/C [14]: 88%
viability, T/C [15]: 83.3%
viability, T/C [16]: 72%
viability, T/C [17]: 52%
viability, T/C [18]: 83.5%
viability, T/C [19]: 85.8%
viability, T/C [20]: 80.7%
viability, T/C [21]: 71.8%
viability, T/C [22]: 71.1%
viability, T/C [23]: 46.7%
viability, T/C [24]: 72.4%
viability, T/C [25]: 71.8%
viability, T/C [26]: 68.9%
viability, T/C [27]: 69%
viability, T/C [28]: 61.3%
viability, T/C [29]: 41%
viability, T/C [30]: 73.8%
viability, T/C [31]: 70.2%
viability, T/C [32]: 69.6%
viability, T/C [33]: 67.9%
viability, T/C [34]: 58%
viability, T/C [35]: 41.9%

IC50 [1]: > 10000 nM
IC50 [2]: > 10000 nM
IC50 [3]: > 10000 nM
IC50 [4]: > 10000 nM
IC50 [5]: > 10000 nM
SMILES: COc1ccc([C@@H](O)c2cc(-c3ncnc4cc(N5CCOCC5)ccc34)c(F)cc2Cl)nn1 + CC(CO)NC(=O)c1cc(-c2ccc(Cl)cc2)nn(-c2cnn(C)c2)c1=O
viability, T/C [6]: 99.4%
viability, T/C [7]: 110%
viability, T/C [8]: 90.2%
viability, T/C [9]: 81.8%
viability, T/C [10]: 78.5%
viability, T/C [11]: 66.5%
viability, T/C [12]: 89.4%
viability, T/C [13]: 93.4%
viability, T/C [14]: 96.8%
viability, T/C [15]: 76.4%
viability, T/C [16]: 71.6%
viability, T/C [17]: 59.5%
viability, T/C [18]: 88.8%
viability, T/C [19]: 88.7%
viability, T/C [20]: 91.6%
viability, T/C [21]: 70.6%
viability, T/C [22]: 59.5%
viability, T/C [23]: 60.1%
viability, T/C [24]: 75.2%
viability, T/C [25]: 71.1%
viability, T/C [26]: 68.3%
viability, T/C [27]: 60%
viability, T/C [28]: 63.6%
viability, T/C [29]: 51.8%
viability, T/C [30]: 70.7%
viability, T/C [31]: 65.5%
viability, T/C [32]: 63.8%
viability, T/C [33]: 56.1%
viability, T/C [34]: 55%
viability, T/C [35]: 55.8%
